According to patent publication US20230138178A1, “Methods and Compositions for Producing a Heterologous Antiviral Compound in a Host Cell” (priority 2019, published 2023):
“Also recorded” adds a separate entry of the source.

Tests used:
[1] = test system: TLR-mediated NFkB activation; assay: TLR-mediated NFkB activation, RAW264.7 NFkB reporter cells; format: cell-based; details: for TLR-mediated NFkB activation: RAW264.7 NFkB reporter, pre-treated overnight, 500 ng/mL LPS, 1 μg/mL PAM, or 1 μg/mL R848
WNV = details: previous study; cited from earlier work
ZIKV = details: previous study; cited from earlier work
DV = details: previous study; cited from earlier work
HSV-1 = format: cell-based, Herpes Simplex Virus 1; details: mouse macrophages/BMDMs pre-treated with 1 mM ddhC; MOI 1 or 10; 24 hours; flow cytometry; preliminary
HCV = details: previous study; cited from earlier work
flavivirus = details: endogenously produced and exogenously administered; Gizzi et al., 2018; cited from earlier work
host cell physiology = details: cited from earlier work
[2] = test system: TLR-mediated Type 1 interferon signaling; assay: TLR-mediated Type 1 interferon signaling in macrophages; format: cell-based
LCMV = format: cell-based, lymphocytic choriomeningitis virus; details: BMDMs pre-treated with 1 mM ddhC; MOI 1 or 10; 24 hours; qPCR; preliminary
Vaccinia virus = format: cell-based
Viperin expression = Viperin expression in Poly(I:C)-stimulated BMDMs (qPCR); details: 1 mM ddhC co-stimulated with 25 ug/mL Poly(I:C)
M. tuberculosis = M. tuberculosis growth in ddhC-stimulated macrophages; format: cell-based, Mycobacterium tuberculosis; details: ddhC-stimulated macrophages vs Vehicle or Cytidine; preliminary

| SMILES | TLR-mediated NFkB activation [1] | suppression of WNV (WNV) | suppression of ZIKV (ZIKV) | suppression of DV (DV) | HSV-1 replication / infectivity (HSV-1) | suppression of HCV (HCV) | flavivirus infection restriction (flavivirus) | cytotoxic effects on host cell physiology (host cell physiology) | toxicity to the host (host cell physiology) | TLR4-mediated Type 1 interferon induction ([2]; preliminary results) | TLR-mediated NFkB signaling in macrophages ([1]; macrophages, preliminary data) | LCMV replication (LCMV) | Vaccinia virus infection (Vaccinia virus) | Poly(I:C)-induced Viperin upregulation (Viperin expression) | M. tuberculosis growth restriction (M. tuberculosis) | TLR-mediated Type 1 interferon signaling ([2]; macrophages, preliminary data) |
| --- | --- | --- | --- | --- | --- | --- | --- | --- | --- | --- | --- | --- | --- | --- | --- | --- |
| Nc1nc2c(ncn2[C@@H]2OC(CO)=C[C@H]2O)c(=O)[nH]1 [ddhG] | agonize | – | – | – | – | – | – | – | – | – | – | – | – | – | – | – |
| Nc1ccn([C@@H]2OC(COP(=O)(O)OP(=O)(O)OP(=O)(O)O)=C[C@H]2O)c(=O)n1 [ddhCTP, 3′-deoxy-3′, 4′-didehydro-CTP] | – | can suppress | can suppress | can suppress | increases | can suppress | restricts | no cytotoxic effects | minimal evidence of toxicity | suppresses | – | – | – | – | – | – |
| Nc1ccn([C@@H]2OC(CO)=C[C@H]2O)c(=O)n1 [ddhC] | agonize | – | – | – | increases replication; also recorded: increasing | – | restricts | – | minimal evidence of toxicity | – | modulates | suppresses replication | negligible effects | dampened | lead to restriction; also recorded: restrict M. tuberculosis growth greater than those treated with Vehicle or Cytidine | modulates |
